We go through 6 compounds from ChEMBL document CHEMBL1201862, “PubChem BioAssay data set” (2004).

Assay [1] has as its target T1, Heat shock factor protein 1 (Mus musculus, UniProt P38532).
T1 sequence (P38532 whole entry): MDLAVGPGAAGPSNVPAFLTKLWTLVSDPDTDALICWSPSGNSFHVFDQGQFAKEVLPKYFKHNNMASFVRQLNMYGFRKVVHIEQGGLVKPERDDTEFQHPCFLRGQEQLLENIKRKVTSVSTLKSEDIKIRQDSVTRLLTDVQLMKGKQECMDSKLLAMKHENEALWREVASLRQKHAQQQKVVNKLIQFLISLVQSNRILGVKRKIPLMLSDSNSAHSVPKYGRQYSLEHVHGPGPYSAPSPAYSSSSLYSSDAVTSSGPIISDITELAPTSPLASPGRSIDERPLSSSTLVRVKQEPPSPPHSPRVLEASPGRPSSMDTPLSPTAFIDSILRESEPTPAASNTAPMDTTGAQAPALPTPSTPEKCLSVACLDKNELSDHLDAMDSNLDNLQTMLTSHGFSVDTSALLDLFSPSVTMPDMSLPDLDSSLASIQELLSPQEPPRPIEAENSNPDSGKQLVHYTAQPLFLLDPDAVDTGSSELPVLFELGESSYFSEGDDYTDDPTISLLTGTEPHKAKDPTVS
Description: inhibition of MG132-induced HSE-luciferase signal, confirmation, cell-based, NIH3T3, luminescence, dose retest (AID 2382).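 Also: NIH3T3 fibroblasts with HSF1-driven luciferase reporter stressed by proteasome inhibitor MG132; luminescence from HSF1-driven luciferase expression after 8 hours of MG132 stress.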 Type of assay: functional.

The target in assay [2] is Heat shock protein HSP 90-alpha (Homo sapiens, UniProt P07900). Kind of assay: Luminescence-based dose response biochemical high throughput screening assay for inhibitors of the Heat Shock Protein 90 (HSP90). [Related pubchem assays: 1831 (Summary AID.), 1846 (Confirmation screen.), 1789 (Primary screen.)].
A short description of assay [3]: cytotoxicity toward DRD oncogenic fibroblasts, dose response, cell-based, non-viral oncogenic, luminescence (AID 1934). Conditions: Homo sapiens. Type of assay: functional.
The subject of assay [4] is BJ. Description: cells. The class given is functional, cell-based. Conditions: Homo sapiens.
The test system of assay [5] is BJ. Description: cytotoxicity toward BJ-TERT fibroblasts, dose response, cell-based, RAS-independent, luminescence (AID 1933). Conditions: Homo sapiens. The class given is functional.
Assay [6] concerns BJ. Description: cytotoxicity toward Ras-transformed BJeLR fibroblasts, dose response, cell-based, alamar blue fluorescence, cherrypicked samples (AID 2631).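 Also: confirmatory dose-response assay in RAS-dependent BJ fibroblasts engineered with TERT, LT and ST, with cytotoxicity read by fluorescence.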 The class given is functional. Conditions: Homo sapiens. On the technique in general: The colour change of resazurin is a common sign of viable cells or microbes.
Assay [7] concerns the target Beta-galactosidase (Escherichia coli, UniProt Q8VNN2). Description: PubChem AID 485352. Type of assay: functional.
Assay [8] relates to BJ. Description: cytotoxicity toward BJ-TERT-LT-ST fibroblasts, dose response, cell-based, RAS-independent, luminescence (AID 1935).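 Also: BJ fibroblasts immortalized with TERT plus LT and ST oncogenes.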 Type of assay: functional. Conditions: Homo sapiens.
The target in assay [9] is T2, Type-1 angiotensin II receptor (Homo sapiens, UniProt P30556).
T2 sequence (P30556 whole entry): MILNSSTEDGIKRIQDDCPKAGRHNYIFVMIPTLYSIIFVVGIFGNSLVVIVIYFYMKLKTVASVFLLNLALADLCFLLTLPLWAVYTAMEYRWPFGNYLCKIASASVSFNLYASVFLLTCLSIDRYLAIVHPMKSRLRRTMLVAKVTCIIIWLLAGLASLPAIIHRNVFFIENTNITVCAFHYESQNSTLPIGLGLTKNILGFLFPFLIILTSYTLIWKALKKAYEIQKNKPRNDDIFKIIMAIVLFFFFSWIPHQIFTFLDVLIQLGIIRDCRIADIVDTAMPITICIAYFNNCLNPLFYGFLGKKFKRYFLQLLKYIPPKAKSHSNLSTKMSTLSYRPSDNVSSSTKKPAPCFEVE
Kind of assay: AT1 receptor antagonists, dose response, selectivity assay for APJ receptor antagonist project, cell-based, uHTS hits (AID 463214).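 Also: antagonist potency against angiotensin II stimulated AT1 response.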 The class given is functional.

The subject of assay [10] is HEK293. Kind of assay: HEK cell cytotoxicity by LDH release, dose response, cytotoxicity control for IDE activator project, fluorescence, HEK cells (AID 588440).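 Also: cytotoxicity by LDH release measuring loss of membrane integrity.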 Particulars: Homo sapiens. Type of assay: functional, cell-based. For orientation: LDH leaks from cells whose membrane has failed.
The target of assay [11] is T3, Insulin-degrading enzyme (Homo sapiens, UniProt P14735).
T3 sequence (P14735 whole entry): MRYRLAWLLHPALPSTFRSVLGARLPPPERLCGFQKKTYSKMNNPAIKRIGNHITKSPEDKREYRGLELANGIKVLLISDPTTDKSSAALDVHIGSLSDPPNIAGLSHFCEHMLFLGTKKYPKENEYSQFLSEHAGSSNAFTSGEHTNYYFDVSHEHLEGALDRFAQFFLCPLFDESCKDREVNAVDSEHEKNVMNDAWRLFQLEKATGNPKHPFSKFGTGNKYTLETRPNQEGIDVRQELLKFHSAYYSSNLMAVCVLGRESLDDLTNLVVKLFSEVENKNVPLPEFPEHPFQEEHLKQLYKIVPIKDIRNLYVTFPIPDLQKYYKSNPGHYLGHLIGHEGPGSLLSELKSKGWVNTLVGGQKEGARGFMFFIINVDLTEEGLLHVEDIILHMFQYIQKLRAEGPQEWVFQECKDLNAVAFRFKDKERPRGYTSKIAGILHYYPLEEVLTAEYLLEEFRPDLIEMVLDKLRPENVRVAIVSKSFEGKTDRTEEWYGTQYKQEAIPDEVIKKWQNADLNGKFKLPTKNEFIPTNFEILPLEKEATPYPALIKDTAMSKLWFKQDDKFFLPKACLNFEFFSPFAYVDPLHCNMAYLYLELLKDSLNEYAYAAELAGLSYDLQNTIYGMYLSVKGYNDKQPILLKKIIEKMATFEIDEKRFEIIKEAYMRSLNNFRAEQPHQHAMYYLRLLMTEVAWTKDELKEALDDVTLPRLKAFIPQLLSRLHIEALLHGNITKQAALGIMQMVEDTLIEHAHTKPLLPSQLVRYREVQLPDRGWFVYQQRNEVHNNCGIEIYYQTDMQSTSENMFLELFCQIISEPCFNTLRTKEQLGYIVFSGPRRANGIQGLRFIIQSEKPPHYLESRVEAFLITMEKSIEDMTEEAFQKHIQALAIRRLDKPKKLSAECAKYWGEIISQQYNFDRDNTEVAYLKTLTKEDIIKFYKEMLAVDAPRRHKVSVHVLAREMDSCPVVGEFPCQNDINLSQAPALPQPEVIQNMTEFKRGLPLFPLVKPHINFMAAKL
Kind of assay: activators of recombinant IDE enzyme, dose response, counter-screen for IDE activator project, biochemical, fluorescence polarization (AID 588681). In general terms: A counterscreen serves to expose hits that act by an unwanted route or on another target.

The subject of assay [12] is HEK293. Description: optical interference in Abeta FP readout, dose response, artefact control for IDE activator project, biochemical, fluorescence polarization (AID 588442). Particulars: Homo sapiens. Type of assay: functional, cell-based.
The target in assay [13] is T3, Insulin-degrading enzyme. Description: activators of endogenous IDE in HEK cells, dose response, cell-based, fluorescence polarization (AID 588439). Type of assay: functional.
Assay [14] concerns the target Beta Lactamase (Pseudomonas aeruginosa, UniProt Q932Y6). Kind of assay: beta-lactamase reporter inhibitor potency, dose response, artefact control for TLR9-MyD88 binding inhibitor project, BLA reporter cells, FRET fluorescence (AID 588341).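 Also: cell based assay in CHO-K1 cells stably expressing beta-lactamase.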 Type of assay: cell-based.
Assay [15] concerns CHO. Kind of assay: cytotoxicity in TLR9-MyD88 CHO cells, dose response, cytotoxicity control for TLR9-MyD88 binding inhibitor project, cell-based, luminescence (AID 588339).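 Also: CHO cells stably coexpressing TLR9 and MyD88 fusions from primary screen; compound exposure lasted 48 hours before viability readout.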 Particulars: Cricetulus griseus. The class given is functional, hamster.
Assay [16] concerns H9c2. Description: cells. The class given is functional, cell-based. Particulars: Rattus norvegicus, H9c2, Myocardium.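 Also: confirmatory concentration-response retest of ultra-high-throughput screening hits for modulation of myocardial damage; cell death induced by hydrogen peroxide oxidative stress; compound pretreatment for 60 min then peroxide exposure for 2 h; potency is for protecting the cells against peroxide damage rather than for killing them.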
Assay [17] deals with Streptococcus sp. 'group A'. Description: growth inhibition of control SK(-) GAS strain, dose response, counter-screen for streptokinase expression inhibitor project, luminescence, kanamycin, BacTiterGlo, confirmation (AID 1900). Type of assay: functional, organism-based.
A short description of assay [18]: THP-1 cell cytotoxicity, dose response, cytotoxicity control for non-replicating M. tuberculosis project (AID 489025). Type of assay: functional.
The test system of assay [19] is Streptococcus. Description: Group A Streptococcus viability loss, dose response, counter-screen for streptokinase expression inhibitor project, luminescence, BacTiterGlo (AID 1915).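 Also: potency for reduction of bacterial viability or growth.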 Type of assay: functional, organism-based.
Assay [20] can be described thus: cells. Type of assay: functional.
The target in assay [21] is T4, Corticotropin-releasing factor receptor 2/Corticotropin-releasing factor-binding protein (Homo sapiens, UniProt P24387+Q13324).
T4 sequence (Q13324 whole entry): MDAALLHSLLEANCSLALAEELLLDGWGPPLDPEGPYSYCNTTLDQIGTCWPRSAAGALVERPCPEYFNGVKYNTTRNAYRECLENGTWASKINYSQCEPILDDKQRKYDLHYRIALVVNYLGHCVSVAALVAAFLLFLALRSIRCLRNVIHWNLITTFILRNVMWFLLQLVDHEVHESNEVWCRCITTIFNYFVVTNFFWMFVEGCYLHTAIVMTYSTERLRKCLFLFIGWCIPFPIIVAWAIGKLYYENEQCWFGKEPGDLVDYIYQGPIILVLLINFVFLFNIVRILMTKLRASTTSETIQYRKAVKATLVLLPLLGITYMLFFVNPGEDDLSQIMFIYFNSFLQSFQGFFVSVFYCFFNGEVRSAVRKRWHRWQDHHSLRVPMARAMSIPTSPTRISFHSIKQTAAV
T4 sequence (P24387 whole entry): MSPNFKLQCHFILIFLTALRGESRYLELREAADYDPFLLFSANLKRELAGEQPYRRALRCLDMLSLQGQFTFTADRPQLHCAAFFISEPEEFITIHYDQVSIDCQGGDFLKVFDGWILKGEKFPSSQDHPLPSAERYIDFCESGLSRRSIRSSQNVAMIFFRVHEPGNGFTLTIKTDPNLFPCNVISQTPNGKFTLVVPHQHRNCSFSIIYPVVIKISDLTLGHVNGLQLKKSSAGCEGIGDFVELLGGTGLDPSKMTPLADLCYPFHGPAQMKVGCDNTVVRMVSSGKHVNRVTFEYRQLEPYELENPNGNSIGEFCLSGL
Kind of assay: activators of CRF receptor 2 with binding protein – uHTS hits, confirmation (AID 602473). The class given is functional. Conditions: read-out: EC50_Mean.

For assay [22], the target named is UDP-galactopyranose mutase (Mycobacterium tuberculosis, UniProt P9WIQ1). Kind of assay: Inhibitors of Mycobacterium tuberculosis UDP-galactopyranose mutase (UGM) enzyme Measured in Biochemical System Using Plate Reader - 2105-02_Inhibitor_Dose_CherryPick_Activity. [Related pubchem assays (depositor defined):AID504439].

Active and inactive are the calls of the source.

Sequence of Beta Lactamase (Q932Y6 whole entry, the tested form may be a part): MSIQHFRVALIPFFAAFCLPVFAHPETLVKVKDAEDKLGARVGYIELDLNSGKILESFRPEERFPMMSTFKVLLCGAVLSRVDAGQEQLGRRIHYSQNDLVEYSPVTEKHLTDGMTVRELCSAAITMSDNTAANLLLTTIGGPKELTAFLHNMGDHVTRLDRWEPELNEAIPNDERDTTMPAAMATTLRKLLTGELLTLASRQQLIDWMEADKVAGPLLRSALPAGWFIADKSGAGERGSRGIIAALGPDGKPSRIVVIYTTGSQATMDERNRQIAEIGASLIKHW
Sequence of Beta-galactosidase (Q8VNN2 whole entry): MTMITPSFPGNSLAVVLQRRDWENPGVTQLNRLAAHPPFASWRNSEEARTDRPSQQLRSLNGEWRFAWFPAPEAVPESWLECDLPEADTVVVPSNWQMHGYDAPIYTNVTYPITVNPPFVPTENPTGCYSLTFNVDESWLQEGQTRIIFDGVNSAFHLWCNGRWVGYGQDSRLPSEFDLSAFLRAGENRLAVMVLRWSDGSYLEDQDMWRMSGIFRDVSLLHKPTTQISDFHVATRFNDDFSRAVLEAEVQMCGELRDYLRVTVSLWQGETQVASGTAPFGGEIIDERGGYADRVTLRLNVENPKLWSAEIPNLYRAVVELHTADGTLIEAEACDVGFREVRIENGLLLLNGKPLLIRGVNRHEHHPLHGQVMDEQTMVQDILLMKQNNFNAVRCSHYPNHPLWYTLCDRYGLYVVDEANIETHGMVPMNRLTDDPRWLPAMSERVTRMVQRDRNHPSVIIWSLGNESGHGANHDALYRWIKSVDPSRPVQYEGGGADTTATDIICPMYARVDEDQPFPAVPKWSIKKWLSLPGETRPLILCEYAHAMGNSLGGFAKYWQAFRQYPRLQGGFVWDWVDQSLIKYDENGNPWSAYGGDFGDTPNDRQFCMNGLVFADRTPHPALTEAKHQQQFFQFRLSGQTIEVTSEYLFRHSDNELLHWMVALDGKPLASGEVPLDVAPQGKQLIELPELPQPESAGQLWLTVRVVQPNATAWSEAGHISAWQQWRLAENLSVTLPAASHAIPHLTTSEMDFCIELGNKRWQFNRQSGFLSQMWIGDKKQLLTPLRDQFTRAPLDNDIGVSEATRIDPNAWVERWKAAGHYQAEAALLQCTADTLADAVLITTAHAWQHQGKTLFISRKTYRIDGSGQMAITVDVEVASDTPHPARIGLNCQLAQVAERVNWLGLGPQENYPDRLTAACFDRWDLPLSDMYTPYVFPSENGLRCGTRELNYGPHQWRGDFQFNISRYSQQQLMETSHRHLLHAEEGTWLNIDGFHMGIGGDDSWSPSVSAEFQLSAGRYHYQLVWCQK
Sequence of UDP-galactopyranose mutase (P9WIQ1 whole entry): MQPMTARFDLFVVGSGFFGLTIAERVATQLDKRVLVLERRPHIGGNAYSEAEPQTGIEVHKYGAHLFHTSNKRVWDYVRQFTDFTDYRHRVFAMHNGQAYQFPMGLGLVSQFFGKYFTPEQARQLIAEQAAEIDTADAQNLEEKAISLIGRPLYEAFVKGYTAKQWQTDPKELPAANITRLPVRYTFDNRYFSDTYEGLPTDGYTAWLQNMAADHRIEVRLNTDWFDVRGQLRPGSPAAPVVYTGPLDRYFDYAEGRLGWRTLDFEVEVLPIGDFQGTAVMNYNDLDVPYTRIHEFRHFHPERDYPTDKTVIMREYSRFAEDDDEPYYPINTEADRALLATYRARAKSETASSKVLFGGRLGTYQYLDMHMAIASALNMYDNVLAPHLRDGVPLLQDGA

For the compound `O=[N+]([O-])c1ccc(N=Nc2ncc[nH]2)cc1`, the EC50 in [1] was 8.49 µM (active); in assay [3], 11.5 µM (inconclusive); in assay [4], 2.43 µM (inconclusive); in [5], 5.4 µM (inconclusive); in assay [6] it was 14.8 µM (active); in assay [7], > 40 µM (inactive). For the same compound, the EC50 in [8] was > 150 µM (inconclusive). Further, the half-inhibitory concentration (IC50) in assay [2] was 10.2 µM (not active); in [9] it was 23.5 µM (not active).

Regarding `COCO/C=C(\NC(C)=O)c1ccccc1`, the IC50 in assay [10] was > 89.3 µM (inactive). Also, the EC50 was > 54.7 µM (inactive) in assay [11], > 56 µM (inactive) in assay [12] and > 54.7 µM (inactive) in assay [13].

For `COc1ccc(/C=C(\C#N)C(=O)Nc2cc(C)c(Cl)cc2OC)cc1O`, the IC50 in assay [10] is 12.6 µM (inactive). Further, the EC50 is > 195 µM (not active) in [1], > 54.7 µM (inactive) in assay [11], > 55.9 µM (inactive) in [12] and > 54.7 µM (inactive) in assay [13].

As to `Nc1ccc2c(C(F)(F)F)cc(=O)oc2c1`, the IC50 in assay [14] is 4.77 µM (active); in assay [15], > 49.7 µM (inactive).

As to `O=c1c(O)c(-c2cccs2)oc2ccc(Cl)cc12`, the results for the IC50 in [10], in assay [16] and in assay [20] were > 89.2 µM (inactive), > 79 µM (inactive) and 13.8 µM (active), respectively. In addition, the EC50 in assay [11] was > 54.7 µM (inactive); in assay [17] it was 2.11 µM (active); in assay [12], > 54.7 µM (inactive); in assay [19], 7.38 µM (active); in assay [13], > 54.7 µM (inactive). For the same compound, the half-maximal cytotoxic concentration (CC50) in assay [18] is > 40 µM (active).

As for `O=C(NC1CCCCC1)c1cccc2c1C(=O)c1ccc(N3CCC(Cc4ccccc4)CC3)cc1S2(=O)=O`, the IC50 in assay [14] was 3.87 µM (active); in assay [15], > 49.7 µM (inactive). Besides, in assay [21], the EC50 is 6.47 µM (active). Further, in assay [22], the AC50 is 72.3 µM (active).

By IC50 is commonly meant the concentration that gives 50% inhibition. The CC50 is the concentration at which the toxic effect on the cells reaches its halfway point. A word on the AC50: it is the concentration giving half of the maximal activity seen.
